{"source": "patent US5112740A", "about": "“Carbon dioxide assay for body fluids comprising carbonic anhydrase” (Eastman Kodak Company, priority 1989, dated 1992)", "key": {"[1]": {"system": "carbonic anhydrase", "assay": "Carbonic anhydrase inhibitors tested against hemolysate bias on the enzymatic CO2 slide (Example 3)", "type": "biochemical, human", "conditions": "for Enzymatic Bicarbonate With Hemolysate: hemoglobin 200 mg/dL, 1 hour room temperature; for Bias: with vs without hemolysate (hemoglobin 200 mg/dL)", "description": "(§1) A stock hemolysate solution was prepared by collecting fresh blood from suitable human donors. The erythrocytes of the blood was pooled, and then washed with saline four times. The erythrocytes were then lysed by five cycles of freezing to -70° C. and thawing at 37° C. The resulting hemolysate was filtered through Whatman No. 1 (Whatman Ltd. UK) filter paper. Hemoglobin concentration in mg/dL was determined by the method of Harboe described in Sca. J. Clinical Lab. Invest. […] The concentration of hemoglobin is directly related to the level of carbonic anhydrase in the hemolysate stock solution.\nThe enzymatic values for CO2 were determined on the test samples with dry-chemistry slides on an […] Clinical Chemistry Analyzer (available from Eastman Kodak Company, Rochester, N.Y.). The principle of the assay is as represented above by reaction series (1) and (5). […] It had the following format:\nA stock solution of 50 mmol/L bicarbonate was prepared in 100 mmol/L tricine buffer (pH 8.0)."}, "[2]": {"system": "carbonic anhydrase", "conditions": "acetazolamide included in the enzymatic CO2 dry chemistry element", "description": "as §1"}, "[3]": {"system": "carbonic anhydrase", "procedure": "Reference values for CO2 (Table I) on test samples were determined using a thermal conductivity procedure on the Corning 965 carbon dioxide analyzer. The technology of the reference procedure is such that it is not affected by carbonic anhydrase.\nThe enzymatic values for CO2 were determined on the test samples with dry-chemistry slides on an [sequence] Clinical Chemistry Analyzer (available from Eastman Kodak Company, Rochester, N.Y.). The principle of the assay is as represented above by reaction series (1) and (5). […] It had the following format:\nA stock solution of 50 mmol/L bicarbonate was prepared in 100 mmol/L tricine buffer (pH 8.0). The stock bicarbonate was diluted with either (a) the buffer or (b) the stock hemolysate and the buffer to give test solutions of about 25 mmol/L HCO3^- and varying concentrations of hemoglobin."}, "[4]": {"system": "carbonic anhydrase", "conditions": "solution assay"}, "[5]": {"conditions": "final inhibitor concentration 5.0 mmol/L"}, "[6]": {"conditions": "final inhibitor concentration 2.0 mmol/L"}, "[7]": {"conditions": "final inhibitor concentration 20.0 mmol/L"}, "[8]": {"conditions": "final inhibitor concentration 1.0 mmol/L"}, "[9]": {"conditions": "final inhibitor concentration 2.5 mmol/L"}}}
{"smiles": "O=C(O)CN(CCO)CCN(CC(=O)O)CC(=O)O", "note": "[HEDTA, NHydroxyethylethylenediaminetriacetic acid]", "values": [{"measurement": "Enzymatic Bicarbonate With Hemolysate", "setting": "[1]; [5]", "result": 15.7, "unit": "mmol/L"}, {"measurement": "Bias", "setting": "[1]; [5]", "result": -7.6, "unit": "mmol/L"}]}
{"smiles": "Nc1ccc(S(N)(=O)=O)cc1", "note": "[Sulfanilamide]", "values": [{"measurement": "Enzymatic Bicarbonate With Hemolysate", "setting": "[1]; [6]", "result": 14.9, "unit": "mmol/L"}, {"measurement": "Bias", "setting": "[1]; [6]", "result": -7.9, "unit": "mmol/L"}]}
{"smiles": "CC(N)C(=O)O", "note": "(racemic) [DL-Alanine]", "values": [{"measurement": "Enzymatic Bicarbonate With Hemolysate", "setting": "[1]; [7]", "result": 14.3, "unit": "mmol/L"}, {"measurement": "Bias", "setting": "[1]; [7]", "result": -8.6, "unit": "mmol/L"}]}
{"smiles": "Nc1ccc(S(=O)(=O)Nc2nccs2)cc1", "note": "[Sulfathiazole]", "values": [{"measurement": "Enzymatic Bicarbonate With Hemolysate", "setting": "[1]; [6]", "result": 15.8, "unit": "mmol/L"}, {"measurement": "Bias", "setting": "[1]; [6]", "result": -8.4, "unit": "mmol/L"}]}
{"smiles": "CC(=O)Nc1nnc(S(N)(=O)=O)s1", "note": "[Acetazolamide]", "values": [{"measurement": "Effect on bias seen with hemolyzed and apparently non-hemolysed patient samples", "setting": "[2]", "result": "effectively eliminates the bias"}, {"measurement": "Effectiveness in eliminating the negative bias of the enzymatic CO2 assay", "setting": "[1]; among the carbonic anhydrase inhibitors tested", "result": "most effective"}, {"measurement": "Enzymatic Bicarbonate With Hemolysate", "setting": "[1]; [8]", "result": 22.9, "unit": "mmol/L"}, {"measurement": "Bias", "setting": "[1]; [8]", "result": -0.3, "unit": "mmol/L"}, {"measurement": "Effect on bias seen with freshly prepared hemolysates", "setting": "[3]; acetazolamide included in the enzymatic CO2 dry chemistry element", "result": "significantly reduces the bias"}, {"measurement": "Effectiveness when included in the reagent layer", "setting": "[3]; reagent layer compared with spreading layer", "result": "equally as effective"}, {"measurement": "Minimum concentration effective as an inhibitor", "setting": "[4]", "result": "at least 0.1 mmol/L"}]}
{"smiles": "[N-]=[N+]=[N-]", "note": "[Azide]", "values": [{"measurement": "Enzymatic Bicarbonate With Hemolysate", "setting": "[1]; [9]", "result": 16.5, "unit": "mmol/L"}, {"measurement": "Bias", "setting": "[1]; [9]", "result": -6.8, "unit": "mmol/L"}]}
{"smiles": "NCC(=O)O", "note": "[Glycine]", "values": [{"measurement": "Enzymatic Bicarbonate With Hemolysate", "setting": "[1]; [7]", "result": 14.3, "unit": "mmol/L"}, {"measurement": "Bias", "setting": "[1]; [7]", "result": -8.1, "unit": "mmol/L"}]}
{"smiles": "O=C(O)CN(CCN(CC(=O)O)CC(=O)O)CC(=O)O", "note": "[EDTA, Ethylenediaminetetraacetic acid]", "values": [{"measurement": "Enzymatic Bicarbonate With Hemolysate", "setting": "[1]; [5]", "result": 14.7, "unit": "mmol/L"}, {"measurement": "Bias", "setting": "[1]; [5]", "result": -8.1, "unit": "mmol/L"}]}
{"smiles": "N#CS", "note": "[Thiocyanate]", "values": [{"measurement": "Enzymatic Bicarbonate With Hemolysate", "setting": "[1]; [9]", "result": 15.3, "unit": "mmol/L"}, {"measurement": "Bias", "setting": "[1]; [9]", "result": -6.7, "unit": "mmol/L"}]}
{"smiles": "O[C@H](CS)[C@@H](O)CS", "note": "[Dithioerythritol]", "values": [{"measurement": "Enzymatic Bicarbonate With Hemolysate", "setting": "[1]; [5]", "result": 17.5, "unit": "mmol/L"}, {"measurement": "Bias", "setting": "[1]; [5]", "result": -5.8, "unit": "mmol/L"}]}
